Earlier results, collected in patent US20090018125A1, “Pharmaceutical Composition and Its Use” (Tillotts Pharma AG, priority 2004, published 2009).

Tested on: human squamous carcinoma line and multidrug-resistant and carboplatin-resistant variants
Conditions: cells pre-treated with GLA

## CCCCC/C=C\C/C=C\C/C=C\CCCCC(=O)O [GLA, gamma-linoleic acid]
  enhancement of vincristine toxicity: up to 40%
Depending on GLA concentration, human squamous carcinoma and carboplatin-resistant variant cell lines
  enhancement of toxicity of carboplatin: ≥ 50%
